Laboratory results from PubChem BioAssay AID179 (DTP/NCI, 2004).
The source made the active and inactive calls.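 Rule for the calls: active = compounds giving half or more protection of infected cells from virus-caused growth loss, again on retest; inactive = the rest.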

Test system: CEM cells HIV-1 protection, formazan growth assay
Experiment: NCI AIDS Antiviral Assay
Conditions: for IC50: measured here: growth of uninfected CEM cells
Procedure, shortened: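 CEM (human) cells, HIV-1 infected vs uninfected, 5-point dosing, formazan growth read-out. Retest threshold 50% protection.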

Structure (SMILES)	EC50	IC50	outcome
Nc1ccc(C(=O)Nc2ccc(/C=C/c3ccc(NC(=O)c4ccc(N)cc4S(=O)(=O)O)cc3S(=O)(=O)O)c(S(=O)(=O)O)c2)c(S(=O)(=O)O)c1	22.4 µM	89.1 µM	–
O=C1Sc2cc([N+](=O)[O-])ccc2C(=O)N2CSCC12 (centres undefined)	> 50.1 µM	> 50.1 µM	–
Cc1cc(=O)oc2cc(OCCCOc3ccc4c(C)cc(=O)oc4c3)ccc12	> 3.72 µM	> 3.72 µM	–
CN(C)NC1=C([N+](=O)[O-])C=NN(c2ccccc2)C1	> 27.5 µM	0.468 µM	–
CN(C)C=Nc1cccc2nsnc12	> 200 µM	> 200 µM	–
O=C(Nc1ccc(Cl)cc1Cl)C(=O)C(C(=O)c1ccncc1)C1OC(=O)c2ccccc21 (centres undefined)	> 178 µM	> 178 µM	–
O=[N+]([O-])c1cccc2nc3ccccc3c(NCCCN3CCCCC3)c12	> 2 µM	0.0126 µM	–
CN=C(NN)NS(=O)(=O)c1cc(C)c(Cl)cc1S	–	–	inactive
CCCCC#COP(=O)(OCC)OCC	> 251 µM	> 251 µM	–
Cc1ccnc(NS(=O)(=O)c2ccc(N=Cc3ccccc3O)cc2)n1	> 200 µM	> 200 µM	–
CC1CCC2(CC1)NN=c1s/c(=C\c3ccc(O)cc3)c(=O)n1N2 (centres undefined)	–	–	inactive
COc1cc(C2(C#N)CCN(C)CC2)cc(OC)c1OC	> 871 µM	437 µM	–
CCOC(=O)c1c(NS(=O)(=O)c2ccccc2)sc2c1CCCC2	–	–	inactive
CN(C)c1ccc(/C=C(\C#N)c2ccc(F)cc2)cc1	> 20 µM	1.07 µM	–
CC1(C)OC2OC(COC(=O)c3ccc(C#N)cc3)C3OC(C)(C)OC3C2O1 (centres undefined)	–	–	inactive
COc1cc2c(c(OC)c1OC)C(=O)[C@@H](O)[C@H]2N	> 200 µM	> 100 µM	–
CC/C(=C(\C#N)c1ccc(F)cc1)c1ccc(OCCN(CC)CC)cc1	> 200 µM	2.51 µM	–
COc1cc2c(cc1OC)-c1cc3ccccc3c(=O)n1CC2	> 200 µM	28.2 µM	–

Structure (SMILES)	EC50	IC50	outcome
CCOC(=O)C1C(c2ccccc2)C2(C#N)C(=N)OC1(C)C2(C#N)C#N (centres undefined)	> 200 µM	28.8 µM	–
COc1c2occc2c(OC(C)C(=O)O)c2c(O)cc(=O)oc12 (centres undefined)	> 282 µM	> 282 µM	–
COc1cc(/C=C/C(=O)c2ccccc2)cc(OC)c1OC	> 87.1 µM	20.4 µM	–
O=[N+]([O-])c1ccc(NC(=S)N=Nc2c(O)[nH]c3ccccc23)cc1	> 200 µM	15.5 µM	–
COC(=O)/C(C#N)=C(\Nc1ccccc1)N1CCCCC1	> 200 µM	97.7 µM	–
O=C(N/N=C/c1ccccc1O)c1ccccc1O	> 20 µM	2.34 µM	–
CC(C)[C@@H]1CC[C@@H](C)C[C@H]1OC(=O)/C=C1/C2C=CC(O2)C1C(=O)O[C@@H]1C[C@H](C)CC[C@H]1C(C)C (some centres undefined)	> 200 µM	> 200 µM	–
O=c1oc2ccccc2c(O)c1C(c1cccc(C(c2c(O)c3ccccc3oc2=O)c2c(O)c3ccccc3oc2=O)c1)c1c(O)c2ccccc2oc1=O	42.7 µM	> 100 µM	–
CCCC(C)C[C@@H](C)CC(C)/C=C(\C)c1oc(=O)c(C)c(O)c1C (some centres undefined) (tested in a mixture with another compound)	–	–	inactive
O=C1C(Br)=CC2(C=C1Br)CCNc1c(O)c3c4c(c12)=NCCC=4C=N3	> 2 µM	0.0891 µM	–
O=[N+]([O-])c1ccc(Cc2ccccc2)cc1	> 63.1 µM	> 63.1 µM	–
COc1c(-c2ccc3c(c2)OCO3)oc2cc(O)cc(O)c2c1=O	> 200 µM	115 µM	–
CC(C#N)NCc1ccccc1 (centres undefined)	–	–	inactive
COc1ccc(/C=C2\C(=O)N(C(=O)c3ccc(NC(C)=O)cc3)N=C2C)cc1	> 19.1 µM	> 19.1 µM	–
COC(=O)C(C)Sc1nc2cc(Cl)ccc2s1 (centres undefined)	> 200 µM	174 µM	–
CCn1c(=O)c(N=O)c(N)n(C2CC2)c1=O	> 200 µM	> 200 µM	–
CCOc1ccc(NC(=O)CC2SC(=Nc3ccc(C)cc3)NC2=O)cc1 (centres undefined)	> 67.6 µM	> 67.6 µM	–
